Reference: the supplement of paper PMC10307832

What was measured:
Assay in all cases: relative viability (nuclei count vs DMSO), 5 days (fraction); higher = more cells survive
NCI-H322M = test system: NCI-H322M
Method in brief: (§1)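 After 5 days of treatment, lung cancer cells in 1536-well plates were fixed and stained in a single step (final 0.05% Triton X-100, 1% formaldehyde, 1 ug/ml Hoechst) and their nuclei counted on 4× images. Treatment had been applied by pin tool the day after seeding as one drug alone or as a fixed anchor-drug dose with five library-drug doses (not always all listed) in √10 steps. Relative viability is the nuclei count of treated wells divided by that of vehicle wells, and values are medians of duplicate plates.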

NCI-H1703 = test system: NCI-H1703
Method in brief: as §1

NCI-H647 = test system: NCI-H647
Method in brief: as §1

NCI-H2087 = test system: NCI-H2087
Method in brief: as §1

PC-14 = test system: PC-14
Method in brief: as §1

COR-L23 = test system: COR-L23
Method in brief: as §1

LCLC-97TM1 = test system: LCLC-97TM1
Method in brief: as §1

NCI-H460 = test system: NCI-H460
Method in brief: as §1

A-427 = test system: A-427
Method in brief: as §1

NCI-H3122 = test system: NCI-H3122
Method in brief: as §1

NCI-H2085 = test system: NCI-H2085
Method in brief: as §1

NCI-H1437 = test system: NCI-H1437
Method in brief: as §1

NCI-H1666 = test system: NCI-H1666
Method in brief: as §1

NCI-H661 = test system: NCI-H661
Method in brief: as §1

NCI-H1563 = test system: NCI-H1563
Method in brief: as §1

NCI-H1915 = test system: NCI-H1915
Method in brief: as §1

EKVX = test system: EKVX
Method in brief: as §1

A549 = test system: A549
Method in brief: as §1

NCI-H2126 = test system: NCI-H2126
Method in brief: as §1

ABC-1 = test system: ABC-1
Method in brief: as §1

NCI-H727 = test system: NCI-H727
Method in brief: as §1

LK-2 = test system: LK-2
Method in brief: as §1

LXF-289 = test system: LXF-289
Method in brief: as §1

LC-2-ad = test system: LC-2-ad
Method in brief: as §1

NCI-H1792 = test system: NCI-H1792
Method in brief: as §1

**Q.** What does the source list for `Nc1cccc2c1CN(C1CCC(=O)NC1=O)C2=O` (stereo unspecified) [Lenalidomide] + C[C@@H](Oc1cc(-c2cnn(C3CCNCC3)c2)cnc1N)c1c(Cl)ccc(F)c1Cl [Crizotinib] (partner 1 µM)?
**A.** relative viability (NCI-H322M; first compound 0.253 µM): 0.911; relative viability (NCI-H322M; first compound 0.8 µM): 0.9; relative viability (NCI-H322M; first compound 2.53 µM): 0.914; relative viability (NCI-H322M; first compound 8 µM): 0.996; relative viability (NCI-H1703; first compound 0.253 µM): 0.467; relative viability (NCI-H1703; first compound 0.8 µM): 0.707; relative viability (NCI-H1703; first compound 2.53 µM): 0.671; relative viability (NCI-H1703; first compound 8 µM): 0.89; relative viability (NCI-H647; first compound 0.253 µM): 1.08; relative viability (NCI-H647; first compound 0.8 µM): 1.04; relative viability (NCI-H647; first compound 2.53 µM): 1.22; relative viability (NCI-H647; first compound 8 µM): 1.14; relative viability (NCI-H2087; first compound 0.253 µM): 0.81; relative viability (NCI-H2087; first compound 0.8 µM): 0.896; relative viability (NCI-H2087; first compound 2.53 µM): 0.539; relative viability (NCI-H2087; first compound 8 µM): 0.928; relative viability (PC-14; first compound 0.253 µM): 0.904; relative viability (PC-14; first compound 0.8 µM): 0.857; relative viability (PC-14; first compound 2.53 µM): 0.905; relative viability (PC-14; first compound 8 µM): 0.914; relative viability (COR-L23; first compound 0.253 µM): 0.656; relative viability (COR-L23; first compound 0.8 µM): 0.634; relative viability (COR-L23; first compound 2.53 µM): 0.718; relative viability (COR-L23; first compound 8 µM): 0.82; relative viability (LCLC-97TM1; first compound 0.8 µM): 0.511; relative viability (LCLC-97TM1; first compound 2.53 µM): 0.463; relative viability (LCLC-97TM1; first compound 8 µM): 0.305; relative viability (NCI-H460; first compound 0.253 µM): 0.807; relative viability (NCI-H460; first compound 0.8 µM): 1.06; relative viability (NCI-H460; first compound 2.53 µM): 1.01; relative viability (NCI-H460; first compound 8 µM): 0.929; relative viability (A-427; first compound 0.253 µM): 0.833; relative viability (A-427; first compound 2.53 µM): 0.891; relative viability (A-427; first compound 8 µM): 0.903; relative viability (NCI-H3122; first compound 0.253 µM): 0.261; relative viability (NCI-H3122; first compound 0.8 µM): 0.286; relative viability (NCI-H3122; first compound 2.53 µM): 0.261; relative viability (NCI-H3122; first compound 8 µM): 0.258; relative viability (NCI-H2085; first compound 0.253 µM): 0.866; relative viability (NCI-H2085; first compound 0.8 µM): 0.742; relative viability (NCI-H2085; first compound 2.53 µM): 0.97; relative viability (NCI-H2085; first compound 8 µM): 0.926; relative viability (NCI-H1437; first compound 0.253 µM): 1.01; relative viability (NCI-H1437; first compound 0.8 µM): 0.917; relative viability (NCI-H1437; first compound 2.53 µM): 1.02; relative viability (NCI-H1437; first compound 8 µM): 0.938; relative viability (NCI-H1666; first compound 0.253 µM): 0.973; relative viability (NCI-H1666; first compound 0.8 µM): 0.807; relative viability (NCI-H1666; first compound 2.53 µM): 1.19; relative viability (NCI-H1666; first compound 8 µM): 1.11; relative viability (NCI-H661; first compound 0.253 µM): 0.972; relative viability (NCI-H661; first compound 0.8 µM): 0.898; relative viability (NCI-H661; first compound 2.53 µM): 0.905; relative viability (NCI-H661; first compound 8 µM): 0.973; relative viability (NCI-H1563; first compound 0.253 µM): 0.882; relative viability (NCI-H1563; first compound 0.8 µM): 0.782; relative viability (NCI-H1563; first compound 2.53 µM): 0.811; relative viability (NCI-H1563; first compound 8 µM): 0.88; relative viability (NCI-H1915; first compound 0.253 µM): 0.906; relative viability (NCI-H1915; first compound 0.8 µM): 0.88; relative viability (NCI-H1915; first compound 2.53 µM): 0.978; relative viability (NCI-H1915; first compound 8 µM): 0.952; relative viability (EKVX; first compound 0.253 µM): 0.978; relative viability (EKVX; first compound 0.8 µM): 1.05; relative viability (EKVX; first compound 2.53 µM): 1.09; relative viability (EKVX; first compound 8 µM): 0.998; relative viability (A549; first compound 0.253 µM): 0.777; relative viability (A549; first compound 0.8 µM): 0.835; relative viability (A549; first compound 2.53 µM): 0.745; relative viability (A549; first compound 8 µM): 0.902; relative viability (NCI-H2126; first compound 0.253 µM): 1.02; relative viability (NCI-H2126; first compound 0.8 µM): 1.02; relative viability (NCI-H2126; first compound 2.53 µM): 1.08; relative viability (NCI-H2126; first compound 8 µM): 0.993; relative viability (ABC-1; first compound 0.253 µM): 1.06; relative viability (ABC-1; first compound 0.8 µM): 1.25; relative viability (ABC-1; first compound 2.53 µM): 1.37; relative viability (ABC-1; first compound 8 µM): 1.43; relative viability (NCI-H727; first compound 0.253 µM): 0.83; relative viability (NCI-H727; first compound 2.53 µM): 0.894; relative viability (NCI-H727; first compound 8 µM): 0.952; relative viability (LK-2; first compound 0.253 µM): 0.229; relative viability (LK-2; first compound 2.53 µM): 0.216; relative viability (LK-2; first compound 8 µM): 0.256; relative viability (LXF-289; first compound 0.253 µM): 0.831; relative viability (LXF-289; first compound 0.8 µM): 0.836; relative viability (LXF-289; first compound 2.53 µM): 0.919; relative viability (LXF-289; first compound 8 µM): 0.983; relative viability (LC-2-ad; first compound 0.253 µM): 0.516; relative viability (LC-2-ad; first compound 0.8 µM): 0.43; relative viability (LC-2-ad; first compound 2.53 µM): 0.547; relative viability (LC-2-ad; first compound 8 µM): 0.511; relative viability (NCI-H1792; first compound 0.253 µM): 1.04; relative viability (NCI-H1792; first compound 0.8 µM): 0.795; relative viability (NCI-H1792; first compound 2.53 µM): 1.12; relative viability (NCI-H1792; first compound 8 µM): 0.96
